Assay results published in patent US20150005348A1, “AMIDE COMPOUND AND USE THEREOF FOR PEST CONTROL” (SUMITOMO CHEMICAL COMPANY, LIMITED, priority 2012, published 2015).

These compounds were tested on last instar larvae of common house mosquitos (Culexpipienspallens) (assay: Larval mortality test on common house mosquitos in treated water (Test Example 5)). Details: Culicidae, 192 h; active ingredient 3.5 ppm in ion-exchanged water; 20 last instar larvae; observed after 8 days.
Assay type: in vivo
Method: Each of the formulations of Compounds (4), (5), (11) and (12) of the present invention obtained in Formulation Example 15 was diluted with water, so as to have a concentration of active ingredient of 500 ppm, to prepare a test drug solution.
0.7 ml of the test drug solution was added to 100 ml of ion-exchanged water (a concentration of active ingredient of 3.5 ppm).

| Compound | mortality at 3.5 ppm |
| --- | --- |
| O=C(/C=C/CCCCCCc1ccccc1)NCC1CCOC1 (stereo not shown) [Compound (4), (E)-N-(tetrahydrofuran-3-ylmethyl)-9-phenyl-2-noneneamide] | ≥ 95% |
| O=C(/C=C/CCCCCCCc1ccccc1)NCC1CCOC1 (stereo not shown) [Compound (5), (E)-N-(tetrahydrofuran-3-ylmethyl)-10-phenyl-2-deceneamide] | ≥ 95% |
| O=C(/C=C/CCCCCCc1ccccc1)NCC1CCOCC1 [Compound (11), (E)-N-(tetrahydropyran-4-ylmethyl)-9-phenyl-2-noneneamide] | ≥ 95% |
| C/C(=C\C(=O)NCC1CCOCC1)CCCc1ccccc1 [Compound (12), (E)-N-(tetrahydropyran-4-ylmethyl)-3-methyl-6-phenyl-2-hexeneamide] | ≥ 95% |
